Data: patent US4265808A, “Pharmacologically active peptides” (Eli Lilly and Company, priority 1979, dated 1981)
Structures can show the parent of a compound that is named as a salt. Where a SMILES comes first, the peptide text is derived from it. [ ]: non-standard residue; d: D form. NEtPhe(4-F) = CCN[C@@H](Cc1ccc(F)cc1)C(=O)O

Test system: mouse
Assay: mouse hot plate test (analgesic activity)
Type: in vivo
Conditions: hot plate 52° C., 15 minutes after administration, latency to jump; for Analgesic Activity, Hot Plate Test ED50, mg./kg. subcutaneous: subcutaneous injection
Protocol: In this test, a mouse is placed inside an upright acrylic cylinder comprising, as its base, a hot plate surface which is maintained at 52° C. The mouse is given, orally or by subcutaneous injection, a predetermined amount of test compound dissolved or suspended in a suitable carrier, and, 15 minutes after administration of the test compound, the mouse is placed on the hot plate surface. The latency in seconds until the mouse jumps from the hot plate surface is measure. […] This must occur in a dose range which produces no motor incoordination or incapacitation. The following Table records the ED50 results obtained from this test.

Row | SMILES | Analgesic Activity, Hot Plate Test ED50, mg./kg. oral [mg/kg] | Analgesic Activity, Hot Plate Test ED50, mg./kg. subcutaneous [mg/kg]
1 | CCN(C(=O)CNC(=O)[C@@H](C)NC(=O)[C@@H](N)Cc1ccc(O)cc1)[C@@H](Cc1ccc(F)cc1)C(N)=O [Example 1, L-Tyrosyl-D-alanyl-glycyl-L-(N-ethyl)-p-fluorophenylalanine Amide, Acetate Salt] | 19 | 0.00018
2 | CCN(C(=O)CNC(=O)[C@H](NC(=O)[C@@H](N)Cc1ccc(O)cc1)[C@H](C)O)[C@@H](Cc1ccc(F)cc1)C(N)=O [Example 2, L-Tyrosyl-D-threonyl-glycyl-L-(N^α -ethyl)-p-fluorophenylalanine Amide, Acetate Salt] (H-Y[dT]G[NEtPhe(4-F)]-NH2) | – | 0.0121
3 | CCN(C(=O)CNC(=O)[C@@H](C)NC(=O)[C@H](Cc1ccc(O)cc1)NC)[C@@H](Cc1ccc(F)cc1)C(N)=O [Example 3, L-N^α -Methyl-tyrosyl-D-alanyl-glycyl-L-(N^α -Ethyl)-p-fluorophenylalanine Amide, Acetate Salt] | 3.55 | 0.0117
